Where a name gives a salt, the structure may show the parent alone. Read-outs that look alike come from different tables or passages of the source.
Tests used:
[1] = tested on: HT1197 cells; assay: Cell-based assay, anti-proliferative activity, MELK-negative control (Cell Counting Kit-8, 72 hours); design: species or system human; conditions: read-out: IC50 (μM) (HTll97)
Method: 100 micro-L of cell suspension was seeded onto 96-well microtiter plate (ViewPlate-96FTC, PerkinElmer). The initial cell concentration of 22Rv1, T47D, A549, DU4475, and HT1197 were 3,000 cells/well, 2,000 cells/well and 2,500 cells/well, respectively. Cellular growth was determined using Cell Counting Kit-8 (DOJINDO) at 72 hours after the exposure of the candidate inhibitors. […] Accurate IC50 values were calculated as described previously.

[2] = tested on: 22Rv1 cells; assay: Cell-based assay, anti-proliferative activity (Cell Counting Kit-8, 72 hours); design: species or system human; conditions: read-out: IC50 (μM) (22Rvl)
Outline: (§1)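 Cells seeded at 2,000–3,000 cells/well and exposed to candidate MELK inhibitors for 72 hours; growth measured with Cell Counting Kit-8. IC50 values calculated from the growth read-out.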

[3] = tested on: A549 cells; assay: as above; design: species or system human; conditions: read-out: IC50 (μM) (A549)
Outline: as §1

[4] = tested on: T47D cells; assay: as above; design: species or system human; conditions: read-out: IC50 (μM) (T47D)
Outline: as §1

[5] = tested on: DU4475 cells; assay: as above; design: species or system human; conditions: read-out: IC50 (μM) (DU4475)
Outline: as §1

[6] = target: MELK (Homo sapiens, UniProt Q14680); assay: Kinase assay (IMAP fluorescence polarization, FITC-labeled histone H3 peptide); assay type: biochemical; conditions: 50 micro-M ATP
Outline: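 Kinase (0.8 ng/μL) reacted with 100 nM FITC-histone H3 peptide and 50 μM ATP in 20 mM HEPES, 0.3 mM MgCl2, 2 mM DTT, 0.01% Tween-20, pH 7.4, for 1 hour at room temperature. Phosphorylation read by IMAP fluorescence polarization after adding binding solution; IC50 from four-parameter fit.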

Chain of MELK (Q14680 whole entry, looked up): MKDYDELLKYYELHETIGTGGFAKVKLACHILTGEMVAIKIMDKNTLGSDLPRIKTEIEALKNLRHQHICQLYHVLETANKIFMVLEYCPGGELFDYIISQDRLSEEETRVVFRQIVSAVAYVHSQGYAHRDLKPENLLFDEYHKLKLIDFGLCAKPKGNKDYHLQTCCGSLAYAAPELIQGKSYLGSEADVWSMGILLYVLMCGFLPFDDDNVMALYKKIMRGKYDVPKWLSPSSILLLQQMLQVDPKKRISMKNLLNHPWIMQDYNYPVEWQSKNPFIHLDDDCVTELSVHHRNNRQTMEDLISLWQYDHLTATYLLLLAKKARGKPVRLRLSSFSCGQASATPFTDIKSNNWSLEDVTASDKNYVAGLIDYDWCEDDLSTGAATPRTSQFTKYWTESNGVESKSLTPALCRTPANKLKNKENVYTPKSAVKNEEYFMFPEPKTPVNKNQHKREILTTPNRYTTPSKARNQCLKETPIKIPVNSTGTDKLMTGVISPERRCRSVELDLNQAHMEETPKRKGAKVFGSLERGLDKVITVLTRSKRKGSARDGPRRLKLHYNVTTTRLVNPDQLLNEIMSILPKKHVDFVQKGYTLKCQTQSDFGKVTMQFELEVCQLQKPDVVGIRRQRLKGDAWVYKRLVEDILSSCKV

Molecule | IC50 ([1]; Homo sapiens, HT1197, 72 h) [µM] | IC50 ([2]; Homo sapiens, 22Rv1, 72 h) [µM] | IC50 ([3]; Homo sapiens, A549, 72 h) [µM] | IC50 ([4]; Homo sapiens, T47D, 72 h) [µM] | IC50 ([5]; Homo sapiens, DU-4475, 72 h) [µM] | IC50 [6] [µM] | IC50 ([1]; HT1197 cells (MELK-negative control), 72 hours) [µM] | IC50 ([2]; 22Rv1 cells, 72 hours) [µM] | IC50 ([3]; A549 cells, 72 hours) [µM] | IC50 ([4]; T47D cells, 72 hours) [µM] | IC50 ([5]; DU4475 cells, 72 hours) [µM]
CC(=O)c1cnc2ccc(-c3cc(Cl)c(O)c(Cl)c3)nc2c1NC1CCN(C)CC1 [Example 45, 1-{6-(3,5-Dichloro-4-hydroxyphenyl)-4-[(1-methylpiperidin-4-yl)amino]-1,5-naphthyridin-3-yl}ethanone] | 0.45 | 0.096 | 0.065 | 0.086 | 0.096 | 0.0058 |  |  |  |  | 
COc1cc(-c2ccc3ncc(C(C)=O)c(Nc4ccc(CCN(C)C)cc4)c3n2)cc(Cl)c1O [Example 31, 1-(6-(3-Chloro-4-hydroxy-5-methoxyphenyl)-4-(4-(2-(dimethyl-amino)ethyl)phenylamino)-1,5-naphthyridin-3-yl) ethanone dihydrochloride] | 4.4 | 0.65 | 0.31 | 0.41 | 0.19 | 0.0037 |  |  |  |  | 
CC(=O)c1cnc2ccc(-c3ccc(O)c(OC(F)(F)F)c3)nc2c1N[C@H]1CC[C@H](CN(C)C)CC1 [Example 11, 1-(4-{trans-4-[(Dimethylamino)methyl]cyclohexylamino}-6-[4-hydroxy-3-(trifluoromethoxy)-phenyl]-1,5-naphthyridin-3-yl)ethanone dihydrochloride] | 0.14 | 0.066 | 0.042 | 0.027 | 0.049 | 0.0027 |  |  |  |  | 
CC(=O)c1cnc2ccc(-c3cc(F)c(O)c(Cl)c3)nc2c1Nc1ccc(N2CCC[C@H](N)C2)nc1 [Example 72, (S)-1-(4-{[6-(3-Aminopiperidin-1-yl)pyridin-3-yl]amino}-6-(3-chloro-5-fluoro-4-hydroxy-phenyl)-1,5-naphthyridin-3-yl)ethanone trihydrochloride] | 1.2 | 0.014 | 0.047 | 0.0053 | 0.014 | 0.0043 |  |  |  |  | 
CC(=O)c1cnc2ccc(Cl)nc2c1N[C@H]1CC[C@H](CN(C)C)CC1 [Example 1, 1-(6-Chloro-4-{trans-4-[(dimethylamino)methyl]cyclohexylamino}-1,5-naphthyridin-3-yl)-ethanone] | 10 | 5 | 2.7 | 5.3 | 2.5 | 0.31 |  |  |  |  | 
CC(=O)c1cnc2ccc(-c3cnc4[nH]ccc4c3)nc2c1N[C@H]1CC[C@H](CN(C)C)CC1 [Example 82, 1-(4-{trans-4-[(Dimethylamino)methyl]cyclohexylamino}-6-(1H-pyrrolo[2,3-b]pyridin-5-yl)-1,5-naphthyridin-3-yl)ethanone trihydrochloride] | 2.3 | 0.37 | 0.33 | 0.32 | 0.65 | 0.013 |  |  |  |  | 
CC(=O)c1cnc2ccc(-c3cc(F)c(O)c(Cl)c3)nc2c1Nc1ccc(NCCN(C)C)nc1 [Example 39, 1-[6-(3-Chloro-5-fluoro-4-hydroxyphenyl)-4-{6-[2-(dimethylamino)ethylamino]pyridin-3-ylamino}-1,5-naphthyridin-3-yl]ethanone trihydrochloride] | 10 | 0.38 | 0.44 | 0.12 | 0.19 | 0.03 |  |  |  |  | 
CC(=O)c1cnc2ccc(-c3cc(Cl)c(O)c(Cl)c3)nc2c1Nc1ccc(N2CCC(N(C)C)C2)nc1 (stereo not drawn) [Example 51, 1-[6-(3,5-Dichloro-4-hydroxyphenyl)-4-{6-[3-(dimethylamino)pyrrolidin-1-yl]pyridin-3-ylamino}-1,5-naphthyridin-3-yl]ethanone trihydrochloride] | 2.8 | 0.36 | 0.32 | 0.19 | 0.32 | 0.0082 |  |  |  |  | 
1-[6-(3-Chloro-5-fluoro-4-hydroxyphenyl)-4-(trans-4-hydroxycyclohexylamino)-1,5-naphthyridin-3-yl]ethanone hydrochloride [Example 92] |  |  |  |  |  | 0.012 | 0.53 | 0.061 | 0.053 | 0.036 | 0.018
CN(C)C[C@H]1CC[C@H](Nc2c(S(C)(=O)=O)cnc3ccc(-c4cc(Cl)c(O)c(Cl)c4)nc23)CC1 [Example 12, 2,6-Dichloro-4-(8-{trans-4-[(dimethylamino)methyl]cyclohexylamino}-7-(methylsulfonyl)-1,5-naphthyridin-2-yl)phenol dihydrochloride] | 0.46 | 0.019 | 0.053 | 0.019 | 0.0045 | 0.001 |  |  |  |  | 
CC(=O)c1cnc2ccc(-c3ccc(O)cc3)nc2c1N[C@H]1CC[C@H](CN(C)C)CC1 [Example 88, 1-(4-{trans-4-[(Dimethylamino)methyl]cyclohexylamino}-6-(4-hydroxyphenyl)-1,5-naphthyridin-3-yl)ethanone dihydrochloride] | 0.039 | 0.04 | 0.023 | 0.031 | 0.021 | 0.0045 |  |  |  |  | 
CC(=O)c1cnc2ccc(-c3cc(F)c(O)c(Cl)c3)nc2c1N[C@H]1CC[C@H](N(C)C)CC1 [Example 3, 1-{6-(3-Chloro-5-fluoro-4-hydroxyphenyl)-4-[trans-4-(dimethylamino)cyclohexylamino]-1,5-naphthyridin-3-yl}ethanone dihydrochloride] | 0.39 | 0.006 | 0.0091 | 0.0026 | 0.0033 | 0.0012 |  |  |  |  | 
COc1cc(-c2ccc3ncc(S(C)(=O)=O)c(N[C@H]4CC[C@H](CN(C)C)CC4)c3n2)cc(Cl)c1O [Example 14, 6-(3-Chloro-4-hydroxy-5-methoxyphenyl)-4-{trans-4-[(dimethylamino)methyl]-cyclohexylamino}-3-methylsulfonyl-1,5-naphthyridine-dihydrochloride] | 0.14 | 0.05 | 0.033 | 0.027 | 0.0096 | 0.0009 |  |  |  |  | 
COc1cc(-c2ccc3ncc(C(C)=O)c(N[C@H]4CC[C@H](CN(C)C)CC4)c3n2)cc(Cl)c1O [Example 8, 1-(6-(3-Chloro-4-hydroxy-5-methoxyphenyl)-4-{trans-4-[(dimethylamino)methyl]cyclohexyl-amino}-1,5-naphthyridin-3-yl)ethanone dihydrochloride] | 0.24 | 0.044 | 0.024 | 0.013 | 0.0064 | 0.0015 |  |  |  |  | 
CC(=O)c1cnc2ccc(-c3cc(F)c(O)c(Cl)c3)nc2c1N[C@H]1CC[C@H](CN2CCN(C)CC2)CC1 [Example 68, 1-(6-(3-Chloro-5-fluoro-4-hydroxyphenyl)-4-{trans-4-[4-methylpiperazin-1-yl)methyl]-cyclohexylamino}-1,5-naphthyridin-3-yl)ethanone trihydrochloride] | 0.11 | 0.039 | 0.026 | 0.012 | 0.012 | 0.0026 |  |  |  |  | 
CN(C)C[C@H]1CC[C@H](Nc2c(C(=O)C3CC3)cnc3ccc(-c4cc(Cl)c(O)c(Cl)c4)nc23)CC1 [Example 4, Cyclopropyl(6-(3,5-dichloro-4-hydroxyphenyl)-4-{trans-4-[(dimethylamino)methyl]-cyclohexylamino}-1,5-naphthyridin-3-yl)methanone dihydrochloride] | 0.036 | 0.0064 | 0.0062 | 0.0055 | 0.0026 | 0.0005 |  |  |  |  | 
